Assay results reported in US20070293666A1, “Optical Filter and Its Applications, and Porphyrin Compound Used in Optical Filter” (Mitsui Chemicals, Inc., priority 2004, published 2007).

How the values were obtained:
Format in all cases: physicochemical
[1] = Absorption spectrum in chloroform (maximum absorption wavelength, gram absorption coefficient, 550/525 nm coefficient ratio); conditions: for εg (gram absorption coefficient) / λmax: chloroform solution; for Ratio of Absorption Coefficient at 525 nm and 550 nm: coefficient at 550 nm to coefficient at 525 nm
Protocol: (§1) Compounds represented by the compound Nos. 1-1, 1-2, 1-3, 1-4 and 1-7 (Table 1-1) were synthesized in the same manner as in Examples 1-1 and 1-2. With respect to compounds synthesized in Example 1-2 and Synthesis Example 1-1 along with these compounds, the maximum absorption wavelength (λmax), the gram absorption coefficient (εg) and solubility were measured.
(§2) λmax and εg are values in the chloroform solution, while the solubility is weight % based on acetone.
With respect to the compounds represented by the compound Nos. 1-2, 1-3, 1-6 and 1-7 synthesized in Examples 1-2 and 1-3 (corresponding to compounds (3-B), (3-C), (3-E) and (3-F) respectively) along with the obtained compound (3-A), the maximum absorption wavelength and the ratio of the absorption coefficient at a wavelength of 550 nm to the absorption coefficient at a wavelength of 525 nm, which were measured in a chloroform solvent, are shown in Table 3-1. [drawing 26] [drawing 27] [drawing 28] [drawing 29]

Solubility in acetone = test: Solubility in acetone; design: key: ∘: completely dissolved; x: not completely dissolved; conditions: for Solubility 0.1%: 0.1 weight % based on acetone; for Solubility 0.2%: 0.2 weight % based on acetone; for Solubility 1.0%: 1.0 weight % based on acetone
Protocol: as §1, §2

[2] = High temperature/high humidity test of optical filter; conditions: 60° C. and 90% RH
Protocol: (§3) With respect to the optical filters obtained from the compounds (3-A) and (3-B), environmental accelerated tests of high temperature, high-temperature/high-humidity and artificial sunlight irradiation were carried out. In the test, a constant temperature chamber at 80° C. (DN-61, manufactured by Yamato Scientific Co., Ltd.), a constant temperature and humidity chamber at 60° C. and 90% RH (Product name, FX2200, manufactured by Kusumoto Chemicals, Ltd.) and a solar simulator (manufactured by Ushio Inc.) were respectively used. A visible light ray in a wavelength of from 380 to 780 nm was irradiated on a surface of the ultraviolet blocking film of the above optical filter at 50 mW/cm^2 for a predetermined time in a room at a temperature of 30±10° C. and a humidity of 50±20%.
(§4) The above optical filters were kept under each environmental condition for 500 hours and 1000 hours, and light transmittance of the optical filter was measured by using the spectrophotometer after 500 hours and 1000 hours. An absorption retention rate in a maximum absorption wavelength after each environmental accelerated test was obtained from the above equation (2).

[3] = Light resistance test / artificial sunlight irradiation test of optical filter; conditions: visible light 380 to 780 nm; for Absorption Retention after Light resistance test for 250 hours: 50 mW/cm^2, 250 hours, 30±10° C., humidity 50±20%
Protocol: To evaluate light resistance of the dye, a sample prepared in the same method as in evaluation of heat resistance is used. The absorption retention rate represented by the above equation (1) is measured in the same manner as in heat resistance. However, in this case, the obtained sample is not kept under the environment of 80° C., but the above visible light ray is irradiated on a side of the ultraviolet blocking film of the sample in a room at a temperature of 30±10° C., a humidity of 50±20% for a predetermined time. Tmax,1 represents light transmittance in a maximum absorption wavelength after the above visible light ray is irradiated for a predetermined time. When there are a plurality of absorption maxima, Tmax,0 is light transmittance at a maximum absorption wavelength showing the highest absorption coefficient. Tmax,1 represents light transmittance at the same wavelength as that in Tmax,0 or at a maximum absorption wavelength nearest to the wavelength in Tmax,0.
With respect to the optical filters obtained from the compounds (3-A) to (3-F), environmental accelerated tests were carried out by artificial sunlight irradiation using a solar simulator (manufactured by Ushio Inc.). A visible light ray in a wavelength of from 380 to 780 nm was irradiated on the ultraviolet blocking film of the prepared optical filter at 50 mW/cm^2 for 250 hours in a room at a temperature of 30±10° C. and a humidity of 50±20%. At this time, an absorption retention rate represented by the above equation (1) was obtained.
as §3, §4

[4] = High temperature test of optical filter; conditions: 80° C.
Protocol: A dye-containing diluting agent was prepared such that the dye concentration in the resin was 1000 (wt)ppm when the dye was dispersed and dissolved in a solvent and dried. Subsequently, an acrylic adhesive (a copolymer of butyl acrylate and acrylic acid (Product name: DBBOND, manufactured by Diabond Industry Co., Ltd.) and the dye-containing diluting agent are mixed (weight ratio 80:20), and continuously applied on a mold releasing layer of a mold releasing film comprising a polyethylene terephthalate film and a silicone mold releasing layer according to the bar coating method, and the resulting material was dried. Due to this, an acrylic adhesive containing the dye having a film thickness of 25 μm was prepared. The prepared adhesive was attached to a transparent acrylic resin (manufactured by Mitsubishi Rayon Co., Ltd., Acrylite, thickness: 2 mm), and the mold releasing film of the adhesive was peeled away and an ultraviolet blocking film (manufactured by Teijin Co., Ltd., HB Film, thickness: 75 μm) was attached to give the sample for evaluation. […]
The above optical filters were kept under each environmental condition for 500 hours and 1000 hours, and light transmittance of the optical filter was measured by using the spectrophotometer after 500 hours and 1000 hours. […]

[5] = Light transmittance of optical filter (dye-containing acrylic adhesive sheet, 1000 ppm dye); conditions: dye 1000 (wt)ppm in acrylic adhesive, 25 μm
Protocol: When the compound (3-A) was dispersed and dissolved in a solvent of ethyl acetate and toluene (weight ratio 50:50) and dried, a dye-containing diluting agent for an acrylic adhesive was prepared such that the dye concentration in the resin was 1000 (wt)ppm. Subsequently, the acrylic adhesive (a copolymer of butyl acrylate and acrylic acid (Product name: DBBOND, manufactured by Diabond Industry Co., Ltd.)) and a dye-containing diluting agent were mixed (weight ratio 80:20), and continuously applied on a mold releasing layer of a mold releasing film comprising a polyethylene terephthalate film and a silicone mold releasing layer according to a bar coating method, and the resulting material was dried. Then, the other mold releasing film was attached to the coating surface to prepare a dye-containing adhesive sheet having a thickness of 25 μm with mold releasing films having different mold releasing forces at both sides.
The mold releasing film on one side of the prepared adhesive sheet was peeled away and the resulting sheet was attached to a transparent acrylic resin (manufactured by Mitsubishi Rayon Co., Ltd., Acrylite, thickness: 2 mm), while the mold releasing film on the other side thereof was further peeled away and an ultraviolet blocking film (manufactured by Teijin Co., Ltd., HB Film, thickness: 75 μm) was attached to prepare an optical filter.
With respect to the obtained optical filter, the light transmittance in a wavelength of from 300 to 800 nm was measured by using a spectrophotometer (Product name: U-3400, manufactured by Hitachi, Ltd.) in accordance with JIS R3106. A percentage of light transmittance at a wavelength of 550 nm to light transmittance at a wavelength of 525 nm was obtained.

| εg (gram absorption coefficient) [1] | λmax [1] [nm] | Solubility 0.1% (Solubility in acetone) | Solubility 0.2% (Solubility in acetone) | Solubility 1.0% (Solubility in acetone) | Absorption retention rate, High temperature/High humidity test, after 500 hours ([2]; 500 hours) [%] | Absorption retention rate, High temperature/High humidity test, After 1000 hours ([2]; 1000 hours) [%] | Absorption Retention after Light resistance test for 250 hours [3] [%] | Absorption retention rate, Artificial sunlight irradiation test, after 500 hours ([3]; 50 mW/cm^2, 500 hours) [%] | Absorption retention rate, Artificial sunlight irradiation test, After 1000 hours ([3]; 50 mW/cm^2, 1000 hours) [%] | Absorption retention rate, High temperature test, after 500 hours ([4]; 500 hours) [%] | Absorption retention rate, High temperature test, After 1000 hours ([4]; 1000 hours) [%] | Maximum Absorption Wavelength ([1]; chloroform solvent) [nm] | Ratio of Absorption Coefficient at 525 nm and 550 nm ([1]; chloroform solvent) | Light Transmittance at 525 nm [5] [%] | Light Transmittance at 550 nm [5] [%] | T@550/T@525 Light Transmittance Ratio [5] [%] | Maximum Absorption Wavelength ([1]; in chloroform) [nm] | gram absorption coefficient ([1]; in chloroform) | SMILES |
| --- | --- | --- | --- | --- | --- | --- | --- | --- | --- | --- | --- | --- | --- | --- | --- | --- | --- | --- | --- |
| 162,000 | 553 | ∘ | ∘ | x | – | – | – | – | – | – | – | – | – | – | – | – | – | – | CCCCOc1ccc(C2=c3nc(c4c5cccc6cccc(c3=4)c65)C(c3ccc(OCCCC)cc3)=c3c4c(c5[n]3[Cu][n]3c2c2c(c3C(c3ccc(OCCCC)cc3)=c3nc(c6c7cccc8cccc(c3=6)c87)C=5c3ccc(OCCCC)cc3)-c3cccc5cccc-2c35)-c2cccc3cccc-4c23)cc1 [1-1] |
| 154,000 | 553 | ∘ | ∘ | ∘ | 91 | 90 | 95 | 95 | 93 | 100 | 100 | 553 | 2.5 | 62.6 | 37.2 | 59 | – | – | CCCCCOc1ccc(C2=c3nc(c4c5cccc6cccc(c3=4)c65)C(c3ccc(OCCCCC)cc3)=c3c4c(c5[n]3[Cu][n]3c2c2c(c3C(c3ccc(OCCCCC)cc3)=c3nc(c6c7cccc8cccc(c3=6)c87)C=5c3ccc(OCCCCC)cc3)-c3cccc5cccc-2c35)-c2cccc3cccc-4c23)cc1 [1-2] |
| 122,000 | 553 | ∘ | ∘ | ∘ | – | – | 80 | – | – | – | – | 553 | 2.3 | 69.1 | 49.8 | 72 | – | – | CCCCCCOc1ccc(C2=c3nc(c4c5cccc6cccc(c3=4)c65)C(c3ccc(OCCCCCC)cc3)=c3c4c(c5[n]3[Cu][n]3c2c2c(c3C(c3ccc(OCCCCCC)cc3)=c3nc(c6c7cccc8cccc(c3=6)c87)C=5c3ccc(OCCCCCC)cc3)-c3cccc5cccc-2c35)-c2cccc3cccc-4c23)cc1 [1-3] |
| 135,000 | 536 | ∘ | ∘ | ∘ | – | – | 97 | – | – | – | – | 536 | 1.2 | 61.7 | 57.5 | 93 | 536 | 135,000 | CCCCCCCCCCOc1ccc(C2=c3nc(c4c5cccc6cccc(c3=4)c65)C(c3ccc(OCCCCCCCCCC)cc3)=c3c4c(c5[n]3[Ni][n]3c2c2c(c3C(c3ccc(OCCCCCCCCCC)cc3)=c3nc(c6c7cccc8cccc(c3=6)c87)C=5c3ccc(OCCCCCCCCCC)cc3)-c3cccc5cccc-2c35)-c2cccc3cccc-4c23)cc1 [1-6] |
| 122,000 | 552 | ∘ | ∘ | ∘ | – | – | 94 | – | – | – | – | 552 | 1.4 | 72.0 | 66.6 | 93 | – | – | CCCCCCCCCCOc1ccc(C2=c3nc(c4c5ccc(Cl)c6c(Cl)ccc(c3=4)c65)C(c3ccc(OCCCCCCCCCC)cc3)=c3c4c(c5[n]3[Ni][n]3c2c2c(c3C(c3ccc(OCCCCCCCCCC)cc3)=c3nc(c6c7ccc(Cl)c8c(Cl)ccc(c3=6)c87)C=5c3ccc(OCCCCCCCCCC)cc3)-c3ccc(Cl)c5c(Cl)ccc-2c35)-c2ccc(Cl)c3c(Cl)ccc-4c23)cc1 [1-7] |
| – | – | – | – | – | – | – | – | – | – | – | – | – | – | – | – | – | 567 | 113,000 | CCCCCCCCCCOc1ccc(-c2c3nc(c(-c4ccc(OCCCCCCCCCC)cc4)c4[nH]c(c(-c5ccc(OCCCCCCCCCC)cc5)c5nc(c(-c6ccc(OCCCCCCCCCC)cc6)c6[nH]c2c2c7cccc8cccc(c87)c62)c2c6cccc7cccc(c76)c52)c2c5cccc6cccc(c65)c42)c2c4cccc5cccc(c54)c32)cc1 [1-A] |
| – | – | – | – | – | – | – | – | – | – | – | – | – | – | – | – | – | 563 | 110,000 | c1coc(-c2c3nc(c(-c4ccco4)c4[nH]c(c(-c5ccco5)c5nc(c(-c6ccco6)c6[nH]c2c2c7cccc8cccc(c87)c62)c2c6cccc7cccc(c76)c52)c2c5cccc6cccc(c65)c42)c2c4cccc5cccc(c54)c32)c1 [2-A] |
| – | – | – | – | – | – | – | 92 | – | – | – | – | 546 | 2.2 | 59.7 | 38.1 | 64 | – | – | CC(C)(C)c1ccc(C2=c3nc(c4c5cccc6cccc(c3=4)c65)C(c3ccc(C(C)(C)C)cc3)=c3c4c(c5[n]3[Cu][n]3c2c2c(c3C(c3ccc(C(C)(C)C)cc3)=c3nc(c6c7cccc8cccc(c3=6)c87)C=5c3ccc(C(C)(C)C)cc3)-c3cccc5cccc-2c35)-c2cccc3cccc-4c23)cc1 [3-D] |
